Experimental data published in article PMC11696749, “Deep Multitask Learning-Driven Discovery of New Compounds Targeting Leishmania infantum” (ACS Omega, 2024).
Like-named read-outs stand apart in the source and are kept apart here.

How the values were obtained:
[1] = system: L. infantum (MHOM/BR/2002/LPC-RPV) promastigotes; assay: In vitro antileishmanial activity against promastigotes (resazurin); assay type: cell-based, Leishmania infantum; conditions: 48 h at 28 °C, three independent experiments
Experimental: (§1) L. infantum (MHOM/BR/2002/LPC-RPV) promastigotes were maintained in Schneider’s medium supplemented with 10% (v/v) fetal bovine serum (FBS, Gibco) and 100 U/mL penicillin and 100 μg/mL streptomycin at 28 °C. MRC-5 human primary fetal lung fibroblast cells were maintained in RPMI 1640 medium supplemented with 10% heat-inactivated fetal calf serum (FCS) and 25 mM HEPES under a 5% CO2 atmosphere at 37 °C and pH 7.4.
To evaluate the effect of prioritized compounds on parasite viability, 4 × 10^6 promastigotes/mL were incubated in the presence of a series of 11 points from 200–0.195 or 50–0.04 μM plus control (0.1% DMSO) for 48 h at 28 °C to a final volume of 200 μL in 96-well microplate. Next, 20 μL of resazurin solution (0.39 mM) was added to each well and incubated for 4 h, and then fluorescence was recorded (570 nmex/595 nmem) on a microplate reader SpectraMax M5 (Molecular Devices, Sunnyvale, CA). The IC50 from three independent experiments was calculated from the dose–response curve fitted in a four-parameter logistic, nonlinear regression model using GraphPad Prism software (CA) v.8.

[2] = In vitro cytotoxicity test on MRC-5 cells (resazurin); assay type: cell-based, human; conditions: human, MRC-5 primary fetal lung fibroblast cells, pH 7.4, MRC-5 cells, 72 h incubation, resazurin; two independent experiments
Experimental: as §1
(§2) MRC-5 cells were seeded in 96-well plates at a density of 1 × 10^4 cells/well using 100 μL of medium. After 24 h, compounds were serially diluted in another set of 96-well plates starting from a concentration of 250 μM (11 dilution points plus the control), using 100 μL of complete culture medium per well. Subsequently, 100 μL of these diluted compounds were transferred to the seeded cells. Amphotericin B (Sigma-Aldrich) dissolved in DMSO was used as a control and diluted from an initial concentration of 0.5 μM. After 72 h of incubation, resazurin was added to a final concentration of 45 μM and incubated for 4 h before measuring fluorescence.

L. donovani [3] = system: L. donovani; set-up: method as in ref 44 (Khare et al.); conditions: Figure 10; ref 44 (Khare et al.); cited from earlier work
3T3 = system: 3T3; set-up: method as in ref 44 (Khare et al.); conditions: Figure 10; ref 44 (Khare et al.); cited from earlier work
macrophage = system: macrophage; set-up: method as in ref 44 (Khare et al.); conditions: Figure 10; ref 44 (Khare et al.); cited from earlier work
[4] = system: MRC-5 human primary fetal lung fibroblast cells; assay: In vitro cytotoxicity test on MRC-5 cells (resazurin); assay type: cell-based; conditions: for SI (selectivity index): ratio of CC50 (MRC-5) to IC50 (L. infantum)
Experimental: as §1, §2

L. donovani [5] = system: L. donovani; set-up: method as in ref 45 (Wyllie et al.); conditions: Figure 10; ref 45 (Wyllie et al.); cited from earlier work
THP-1 = system: THP-1; set-up: method as in ref 45 (Wyllie et al.); conditions: Figure 10; ref 45 (Wyllie et al.); cited from earlier work

| Structure (SMILES) | IC50 ([1]; Leishmania infantum, 48 h) | CC50 at 72 h [2] | other results |
| --- | --- | --- | --- |
| C[C@@H]1[C@H](O)[C@@H](C)/C=C/C=C/C=C/C=C/C=C/C=C/C=C/[C@H](O[C@@H]2O[C@H](C)[C@@H](O)[C@H](N)[C@@H]2O)C[C@@H]2O[C@](O)(C[C@@H](O)C[C@@H](O)[C@H](O)CC[C@@H](O)C[C@@H](O)CC(=O)O[C@H]1C)C[C@H](O)[C@H]2C(=O)O [Amphotericin B, reference compound] | 0.079 ± 0.001 µM | > 0.67 µM |  |
| CC(C)OC(=O)Nc1cnc2nc(-c3cc(NC(=O)c4ccco4)ccc3Cl)cn2c1 [GNF2636] |  |  | IC50 (L. donovani [3]): 350 nM; CC50 (3T3): 3.5 µM; CC50 (macrophage): 14.1 µM |
| Cc1nc(C)c(C(=O)Nc2ccc(F)c(-c3nc4ncc(-c5ccccc5)cn4n3)c2)o1 [GNF3849] |  |  | IC50 (L. donovani [3]): 71 nM |
| Cc1nc(C)c(C(=O)Nc2ccc(F)c(-c3nc4ncc(-c5ccccn5)cn4n3)c2)o1 [GNF6702] |  |  | IC50 (L. donovani [3]): 1.8 nM |
| O=C(Nc1ccc(Cl)c(-c2nc3ncccc3o2)c1)c1cccs1 [LC-15] | 1.5 µM | > 32.4 µM | IC50 [1]: 1.05 ± 0.37 µM; CC50 ([4]; MRC-5 cells, 72 h incubation, resazurin, two independent experiments): 32.4 ± 8.31 µM; SI (selectivity index) [4]: 30.9 |
| Cc1cc(NCc2ccncc2C)nc(N2CCCCC2)n1 [LC-20] | > 100 µM |  |  |
| Cc1nc2ccc(Cl)cn2c1C(=O)N1CCCC1c1ccccn1 (centres unmarked) [LC-25] | > 100 µM |  |  |
| CN1CCC(Nc2nccc(-c3ccccn3)n2)C(Cc2ccccc2)C1 (centres unmarked) [LC-26] | 11.9 ± 1.7 µM | 48.4 ± 16.9 µM |  |
| Cc1nc(O)cc(C2CCN(c3nccc(-c4ccccn4)n3)CC2)n1 [LC-27] | > 100 µM |  |  |
| Fc1ccc(OCc2nc3cc(Cl)ccc3[nH]2)cc1 [LC-31] | 4.51 ± 2.25 µM | 40.7 ± 4.33 µM | SI (selectivity index) [4]: 9.04 |
| Cc1cc(C)nc(-n2nc(C)c3c2NC(=O)CC3c2ccc3c(c2)OCO3)n1 (centres unmarked) [LC-35] | 17.1 ± 2.89 µM | 145 ± 21.8 µM | SI (selectivity index) [4]: 8.47 |
| O=C(Nc1cccnc1Cl)c1cc(-c2ccc3c(c2)OCO3)on1 [LC-36] | > 100 µM |  |  |
| Cc1ccc(C2CC(=O)Nc3c2c(C)nn3-c2nc(C)cc(C)n2)cc1 (centres unmarked) [LC-37] | 15.6 ± 2.36 µM | > 250 µM | SI (selectivity index) [4]: >15.9 |
| CC(=O)Nc1ccc(S(=O)(=O)Nc2cc(C)nn2-c2ccccn2)cc1 [LC-38] | > 100 µM |  |  |
| O=C(Nc1ccc(F)c(-c2cn3cc(-c4ccccc4)cnc3n2)c1)N1CCCC1 [compound 6] |  |  | IC50 (L. donovani [5]): 150 nM; CC50 (THP-1): > 50 µM |
| O=C(Nc1ccc(F)c(-c2cn3nc(-c4ccccc4)cnc3n2)c1)N1CCCC1 [compound 7] |  |  | IC50 (L. donovani [5]): 350 nM; CC50 (THP-1): > 50 µM |
